Test results: patent US20250368644A1, “DURLOBACTAM CRYSTALLINE FORMS” (Entasis Therapeutics Limited, priority 2022, published 2025)
Counter-ions that a name gives are not always drawn. Blank lines part the entries; values can stand above or below the molecule they belong to.

Legend:
[1] = Stability of DUR, its salts and crystalline forms (observations in words); conditions: for Stability of the crystalline form: DUR-Ca polymorphs, solvent systems, Calcium salt
Method: (§1) Attempts were undertaken to form DUR-Ca via salt metathesis by slurry reaction of DUR-TBA salt with six calcium salts (CaCl2), CaBr2, Ca(BF4)2. Ca(OAc)2, Calcium D-gluconate and Calcium citrate) to find an alternative method to the ion exchange resin, which is very time consuming and costly to scale up.
A range of crystallization experiments were carried out, including evaporations, ambient temperature slurries, vapor stress at ambient temperature and temperature cycling, in many different solvents, or solvent mixtures, using crystalline DUR-Ca, DUR-TBA, and DUR-TEA salts as seeds.

[2] = Solubility of the salt in solvents (observations in words); type: physicochemical
Excerpt: as §1

[3] = system: β-lactamases commonly found in A. baumannii; conditions: preclinical studies, background statement; cited from earlier work
[4] = Salt slurry experiments with DUR-Ca Form A (solid form after slurry in solvents); type: physicochemical; conditions: 3 days
Excerpt: DUR-Ca Form A was slurred in 26 solvents for 3 days. A new distinct form (assigned as Form C) was obtained in most of solvents (Table 19).

SMILES: CC1=CC2CN(C(=O)N2OS(=O)(=O)O)C1C(N)=O.c1ccncc1 (centres unmarked) [pyridine salt]
Stability of the salt as isolated solid [1]: not stable

SMILES: CC1=C[C@@H]2CN(C(=O)N2OS(=O)(=O)O)[C@@H]1C(N)=O [DUR-TBA, Durlobactam Tetrabutylammonium salt]
Solubility ([2]; EtOH): soluble | Solubility ([2]; most solvents): soluble in most solvents

SMILES: CC1=C[C@@H]2CN(C(=O)N2OS(=O)(=O)O)[C@@H]1C(N)=O [DUR-Ca Form C, Durlobactam Calcium salt]
Stability of the crystalline form ([1]; listed as crystalline form C): more stable

Continued, in another order:

Chemical stability (degradation) ([1]; free acid): readily degraded
SMILES: CC1=C[C@@H]2CN(C(=O)N2OS(=O)(=O)O)[C@@H]1C(N)=O [DUR, Durlobactam]
Inhibition of β-lactamases [3]: inhibit the β-lactamases commonly found in A. baumannii

Result (solid form after slurry) ([4]; Slurry 1, Methanol): Form C | Result (solid form after slurry) ([4]; Slurry 2, Ethanol): Form C | Result (solid form after slurry) ([4]; Slurry 3, IPA): Form C | Result (solid form after slurry) ([4]; Slurry 4, THF): Amorphous | Result (solid form after slurry) ([4]; Slurry 5, EtOAc): Form C | Result (solid form after slurry) ([4]; Slurry 6, Acetone): Form C | Result (solid form after slurry) ([4]; Slurry 7, Isobutanol): Form C | Result (solid form after slurry) ([4]; Slurry 8, Isopropyl Acetate): Form C | Result (solid form after slurry) ([4]; Slurry 9, Acetonitrile): Form C | Result (solid form after slurry) ([4]; Slurry 10, 2-Butanone): Form C | Result (solid form after slurry) ([4]; Slurry 11, Toluene): Mixture of Form A and C | Result (solid form after slurry) ([4]; Slurry 13, Tert-butyl methyl ether): Form C | Result (solid form after slurry) ([4]; Slurry 14, Propanol): Form C | Result (solid form after slurry) ([4]; Slurry 15, Isopentanol): Form C | Result (solid form after slurry) ([4]; Slurry 16, Butyl acetate): Form C | Result (solid form after slurry) ([4]; Slurry 17, Ethyl Formate): Form C | Result (solid form after slurry) ([4]; Slurry 18, 1,4-dioxane): Amorphous | Result (solid form after slurry) ([4]; Slurry 19, Butanol): Form C | Result (solid form after slurry) ([4]; Slurry 20, Heptane): Form C | Result (solid form after slurry) ([4]; Slurry 21, Pentane): Form C | Result (solid form after slurry) ([4]; Slurry 22, Cyclohexane): Form C | Result (solid form after slurry) ([4]; Slurry 23, Methylisobutyl Ketone): Form C | Result (solid form after slurry) ([4]; Slurry 24, Xylene): Form C | Result (solid form after slurry) ([4]; Slurry 25, Isobutyl acetate): Form C | Result (solid form after slurry) ([4]; Slurry 26, Ethyl ether): Form C | Stability of the crystalline form ([1]; listed as Crystalline form A): unstable in certain solvent systems
SMILES: CC1=C[C@@H]2CN(C(=O)N2OS(=O)(=O)O)[C@@H]1C(N)=O [DUR-Ca Form A, Durlobactam Calcium salt]
